# Test results: patent US20240199623A1 (ILDONG PHARMACEUTICAL CO., LTD., priority 2020, published 2024)
# Assays:
# [1] = molecular target: T1, Human recombinant PDE4B 1 (Homo sapiens, UniProt Q07343); test: Human phosphodiesterase 4 (PDE4) inhibition, PDE4B 1; assay type: biochemical; conditions: read-out: % inhibition range at 10 uM PDE4B1; 10 uM test compound
# T1 construct: purchased BPS Bioscience; host or cells: insect Sf9 cells
# Experimental: (§1) […] Human recombinant PDE4A1A, PDE4B 1, PDE4C1 and PDE4D2 are respectively expressed in each host cell (insect Sf9 cells, BPS Bioscience). Preincubation of 10 μM test compounds or vehicle was proceeded with 20 ng/ml PDE4A1A or 4 ng/ml PDE4B 1 or 8 ng/ml PDE4C1 or 5 ng/ml PDE4D2 enzyme in Tris-HCl buffer pH 7.2 for 15 minutes at 25° C. 100 nM fluorescein (FAM) labeled cAMP for another 30 minutes incubation period was added in order to initiate the enzymatic reaction and addition of IMAP binding solution was followed for its termination. Specifically, IMAP complexes with phosphate groups on nucleotide monophosphate generated from cyclic nucleotides through PDE activity. The amount of complex formed is determined by reading spectrofluorimetrical signal at 470 nm/525 nm.
# human wild type-CFTR [2] = molecular target: T2, human wild type-CFTR (Homo sapiens, UniProt P13569); test: Short-circuit current measurement; assay type: cell-based; design: expressed in transfected cells; conditions: FRT cells expressing human wild type-CFTR; Forskolin 20 μM signal used as 100% activity; read-out: Short-circuit current measurement (EC50) Concentration range
# T2 sequence (P13569 whole entry): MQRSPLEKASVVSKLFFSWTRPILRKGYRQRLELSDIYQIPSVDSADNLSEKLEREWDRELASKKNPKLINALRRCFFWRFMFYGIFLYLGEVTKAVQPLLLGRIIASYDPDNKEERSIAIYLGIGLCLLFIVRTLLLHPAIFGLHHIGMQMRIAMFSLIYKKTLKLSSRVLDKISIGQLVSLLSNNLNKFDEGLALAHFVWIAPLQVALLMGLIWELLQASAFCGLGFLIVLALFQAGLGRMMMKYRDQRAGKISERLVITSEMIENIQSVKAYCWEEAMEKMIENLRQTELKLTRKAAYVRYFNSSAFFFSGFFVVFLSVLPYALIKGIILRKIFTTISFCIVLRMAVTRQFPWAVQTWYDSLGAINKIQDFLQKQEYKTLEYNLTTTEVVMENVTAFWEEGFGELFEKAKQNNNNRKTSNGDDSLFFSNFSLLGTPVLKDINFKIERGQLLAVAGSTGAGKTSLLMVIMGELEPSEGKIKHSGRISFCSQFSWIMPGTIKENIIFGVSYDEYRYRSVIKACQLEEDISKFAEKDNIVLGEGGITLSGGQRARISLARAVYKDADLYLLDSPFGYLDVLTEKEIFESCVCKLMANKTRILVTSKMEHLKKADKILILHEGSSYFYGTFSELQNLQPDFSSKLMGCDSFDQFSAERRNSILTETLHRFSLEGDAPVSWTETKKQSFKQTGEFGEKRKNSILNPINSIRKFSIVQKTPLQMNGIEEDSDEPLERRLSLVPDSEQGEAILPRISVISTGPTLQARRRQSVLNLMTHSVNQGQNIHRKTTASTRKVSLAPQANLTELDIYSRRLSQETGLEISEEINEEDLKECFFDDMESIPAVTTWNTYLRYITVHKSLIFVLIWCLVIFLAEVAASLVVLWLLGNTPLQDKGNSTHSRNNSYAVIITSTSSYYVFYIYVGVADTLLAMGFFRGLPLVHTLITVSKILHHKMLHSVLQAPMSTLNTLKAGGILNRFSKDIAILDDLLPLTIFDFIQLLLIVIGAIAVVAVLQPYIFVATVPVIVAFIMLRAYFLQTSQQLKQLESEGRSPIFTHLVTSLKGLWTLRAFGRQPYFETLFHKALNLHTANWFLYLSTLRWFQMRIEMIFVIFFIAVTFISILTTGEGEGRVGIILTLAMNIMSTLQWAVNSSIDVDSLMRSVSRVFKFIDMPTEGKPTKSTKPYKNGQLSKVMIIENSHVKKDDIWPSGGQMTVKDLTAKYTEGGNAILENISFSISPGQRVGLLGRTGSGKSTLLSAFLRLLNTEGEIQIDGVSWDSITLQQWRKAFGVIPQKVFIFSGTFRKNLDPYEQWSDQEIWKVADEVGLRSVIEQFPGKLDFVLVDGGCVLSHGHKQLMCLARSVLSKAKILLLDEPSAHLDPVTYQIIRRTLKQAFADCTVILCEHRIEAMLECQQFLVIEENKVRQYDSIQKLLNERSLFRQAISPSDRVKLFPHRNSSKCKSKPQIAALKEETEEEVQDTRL
# Summary of the method: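 Ussing-chamber short-circuit current in FRT cells expressing human wild-type CFTR, grown on Snapwell inserts. Forskolin, test compounds and CFTRinh-172 added to both apical and basolateral baths; apical membrane current and Isc sampled at 4 Hz.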
# [3] = Phosphate-buffered saline (PBS) solubility of compounds; assay type: physicochemical; conditions: aqueous buffer, thermodynamic from solid, PBS pH 7.5, 0.5 mg/mL, vortexed 90 min, filtered, LC-MS/MS, read-out: Solubility Range
# Experimental: PBS solutions (pH 7.5) were prepared according to the following compositions and stored at 4° C. Test compounds were dissolved in PBS (pH 7.5) at 0.5 mg/mL and vortexed for 90 min. The PBS solution was sequentially filtered through a 0.45, 1.2, […] syringe filter. Concentration of test compounds were determined using LC-MS/MS with appropriate dilution of the samples.
# Human recombinant PDE4C1 = molecular target: T3, Human recombinant PDE4C1 (Homo sapiens, UniProt Q08493); test: Human phosphodiesterase 4 (PDE4) inhibition, PDE4C1; assay type: biochemical; conditions: read-out: % inhibition range at 10 uM PDE4C1; 10 uM test compound
# T3 construct: purchased BPS Bioscience; host or cells: insect Sf9 cells
# T3 sequence (Q08493 whole entry): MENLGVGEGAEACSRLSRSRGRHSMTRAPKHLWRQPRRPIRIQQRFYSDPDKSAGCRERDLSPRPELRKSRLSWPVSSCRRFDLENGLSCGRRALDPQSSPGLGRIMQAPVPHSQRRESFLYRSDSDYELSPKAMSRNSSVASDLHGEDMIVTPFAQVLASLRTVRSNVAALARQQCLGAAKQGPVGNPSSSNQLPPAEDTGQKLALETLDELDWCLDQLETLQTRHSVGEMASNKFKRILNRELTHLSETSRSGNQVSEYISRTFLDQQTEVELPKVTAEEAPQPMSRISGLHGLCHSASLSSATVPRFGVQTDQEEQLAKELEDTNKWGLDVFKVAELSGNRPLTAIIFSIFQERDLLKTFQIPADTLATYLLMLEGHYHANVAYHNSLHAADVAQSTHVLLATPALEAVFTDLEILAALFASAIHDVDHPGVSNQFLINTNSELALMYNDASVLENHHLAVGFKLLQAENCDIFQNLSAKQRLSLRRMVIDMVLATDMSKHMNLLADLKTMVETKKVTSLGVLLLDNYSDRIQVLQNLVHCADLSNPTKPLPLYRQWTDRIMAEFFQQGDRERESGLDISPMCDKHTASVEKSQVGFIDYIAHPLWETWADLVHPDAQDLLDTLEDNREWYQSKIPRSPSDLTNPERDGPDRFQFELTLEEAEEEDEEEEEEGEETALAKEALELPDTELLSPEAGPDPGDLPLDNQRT
# Experimental: as §1
# human wild type-CFTR [4] = molecular target: T2, human wild type-CFTR; test: Cell-based YFP assay; design: expressed in transfected cells; host or cells: CHO-K1 (Chinese hamster ovary); conditions: CHO-K1 cells expressing human wild type-CFTR and YFP-H148Q/I152L; forskolin 20 μM = 100% activity; read-out: Cell-based YFP Assay (EC50) Concentration Range
# Summary of the method: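 CHO-K1 cells co-expressing human wild-type CFTR and YFP-H148Q/I152L halide sensor, grown 48 h at 37 °C, then in PBS. YFP quenching by I⁻ influx read at 37 °C after adding 140 mM I⁻ solution, sampled every 0.4 s for 14 s. Triplicates averaged; EC50 fitted.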
# Human recombinant PDE4D2 = molecular target: T4, Human recombinant PDE4D2 (Homo sapiens, UniProt Q08499); test: Human phosphodiesterase 4 (PDE4) inhibition, PDE4D2; assay type: biochemical; conditions: read-out: % inhibition range at 10 uM PDE4D2; 10 uM test compound
# T4 construct: purchased BPS Bioscience; host or cells: insect Sf9 cells
# T4 sequence (Q08499 303-809 limits assumed): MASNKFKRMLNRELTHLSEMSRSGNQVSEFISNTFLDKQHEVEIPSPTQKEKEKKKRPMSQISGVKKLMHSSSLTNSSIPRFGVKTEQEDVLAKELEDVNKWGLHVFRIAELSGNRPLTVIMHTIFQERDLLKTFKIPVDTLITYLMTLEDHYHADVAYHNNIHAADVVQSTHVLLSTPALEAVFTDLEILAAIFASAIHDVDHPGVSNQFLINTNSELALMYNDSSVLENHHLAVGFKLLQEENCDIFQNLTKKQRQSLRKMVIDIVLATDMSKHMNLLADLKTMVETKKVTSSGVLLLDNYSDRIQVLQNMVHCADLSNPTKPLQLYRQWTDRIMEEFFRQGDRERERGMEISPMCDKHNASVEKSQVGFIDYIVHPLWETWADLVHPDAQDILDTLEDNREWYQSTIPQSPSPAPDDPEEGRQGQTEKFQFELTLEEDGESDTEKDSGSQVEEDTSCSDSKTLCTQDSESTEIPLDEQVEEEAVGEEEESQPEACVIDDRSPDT
# Experimental: as §1
# C57BL/6 female mice = test: Scopolamine induced tear volume reduction model; assay type: in vivo, mouse; conditions: scopolamine-injected mice, ophthalmic solution topically on both eyes 3 times a day, phenol red thread; average if evaluated twice
# Experimental: Seven-week old C57BL/6 female mice were used.
# Scopolamine hydrobromide was purchased from Sigma Aldrich (Cat No. S0929), dissolved in saline, and sterilized prior to use.
# Zone-Quick phenol red thread was obtained from Menicon.
# The test compounds used in this experiment were dissolved in PBS containing 1% of surfactant.
# Scopolamine (0.2 ml of 2.5 mg/mL solution) was injected subcutaneously 3 times a day to induce a decrease in the tear volume in the mouse. At the same time, the ophthalmic solution of test compounds or vehicle were topically administered onto both eyes 3 times a day. Tear volume was measured by phenol red thread before dosing (basal level) and 1 hour after the last administration of scopolamine and ophthalmic solution. The results were obtained by measuring the length of the phenol red thread turning red by tears. The schedule of study is expressed as FIG. 1.
# If the test compound was evaluated twice, the average value was used.
# [5] = molecular target: T5, Human recombinant PDE4A1A (Homo sapiens, UniProt P27815); test: Human phosphodiesterase 4 (PDE4) inhibition, PDE4A1A; assay type: biochemical; conditions: read-out: % inhibition range at 10 uM PDE4A1A; 10 uM test compound
# T5 construct: purchased BPS Bioscience; host or cells: insect Sf9 cells
# T5 sequence (P27815 1-647 isoform P27815-4): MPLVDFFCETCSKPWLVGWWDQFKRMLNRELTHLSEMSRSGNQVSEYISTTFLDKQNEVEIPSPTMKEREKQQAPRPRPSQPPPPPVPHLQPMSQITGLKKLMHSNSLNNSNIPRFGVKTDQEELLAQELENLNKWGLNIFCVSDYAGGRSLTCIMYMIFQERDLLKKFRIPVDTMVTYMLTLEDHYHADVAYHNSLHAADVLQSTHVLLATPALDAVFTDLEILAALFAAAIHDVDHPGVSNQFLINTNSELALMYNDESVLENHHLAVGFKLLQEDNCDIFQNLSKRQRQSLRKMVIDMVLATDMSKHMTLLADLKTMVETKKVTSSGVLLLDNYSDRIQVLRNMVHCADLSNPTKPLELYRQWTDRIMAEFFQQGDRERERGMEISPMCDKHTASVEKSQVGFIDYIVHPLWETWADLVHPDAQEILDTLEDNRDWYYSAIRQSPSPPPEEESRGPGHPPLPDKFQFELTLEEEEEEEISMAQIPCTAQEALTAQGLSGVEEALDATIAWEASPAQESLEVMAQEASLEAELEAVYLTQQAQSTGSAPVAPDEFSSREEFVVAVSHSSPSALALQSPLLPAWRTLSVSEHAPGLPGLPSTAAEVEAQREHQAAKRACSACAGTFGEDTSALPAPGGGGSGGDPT
# Experimental: as §1
# T1 sequence (Q07343 whole entry): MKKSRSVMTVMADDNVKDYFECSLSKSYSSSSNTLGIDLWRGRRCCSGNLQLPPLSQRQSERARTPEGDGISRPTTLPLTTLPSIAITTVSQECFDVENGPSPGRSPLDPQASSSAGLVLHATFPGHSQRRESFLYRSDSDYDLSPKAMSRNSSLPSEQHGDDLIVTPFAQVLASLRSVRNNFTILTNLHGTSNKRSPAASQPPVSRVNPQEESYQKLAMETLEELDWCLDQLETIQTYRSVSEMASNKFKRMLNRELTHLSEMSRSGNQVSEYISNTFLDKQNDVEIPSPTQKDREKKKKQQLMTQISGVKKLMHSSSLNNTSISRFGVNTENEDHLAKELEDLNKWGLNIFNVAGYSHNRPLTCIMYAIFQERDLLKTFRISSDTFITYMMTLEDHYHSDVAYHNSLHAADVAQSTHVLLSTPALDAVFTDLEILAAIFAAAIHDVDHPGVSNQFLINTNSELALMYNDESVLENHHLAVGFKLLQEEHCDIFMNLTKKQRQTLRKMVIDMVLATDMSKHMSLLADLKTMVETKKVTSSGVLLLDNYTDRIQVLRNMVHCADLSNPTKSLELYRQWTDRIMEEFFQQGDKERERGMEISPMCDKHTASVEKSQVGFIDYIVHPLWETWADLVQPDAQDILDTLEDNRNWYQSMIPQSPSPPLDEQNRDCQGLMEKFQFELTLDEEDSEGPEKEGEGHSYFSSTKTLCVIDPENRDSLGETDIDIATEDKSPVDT
SMILES,inhibition at 10 µM [1],EC50 (human wild type-CFTR [2]),solubility at 90 min [3],inhibition at 10 µM (Human recombinant PDE4C1),EC50 (human wild type-CFTR [4]),inhibition at 10 µM (Human recombinant PDE4D2),Ratio of tear volume (test compound to vehicle) (C57BL/6 female mice),inhibition at 10 µM [5]
"COc1ccc(-c2ccnc3cc(C(=O)Nc4ccc(O)cc4)nn23)cc1OC [Compound 15, 7-(3,4-dimethoxyphenyl)-N-(4-hydroxyphenyl)pyrazolo[1,5-a]pyrimidine-2-carboxamide]",> 80%,< 200 nM,< 0.1 µg/mL,> 80%,< 200 nM,> 80%,1.29,> 80%
"COc1ccc(-c2ccnc3cc(C(=O)Nc4ccc(C(=O)N5CCN(C)CC5)cc4)nn23)cc1OC [Compound 97, 7-(3,4-dimethoxyphenyl)-N-(4-(4-methylpiperazine-1-carbonyl)phenyl)pyrazolo[1,5-a]pyrimidine-2-carboxamide]",> 80%,200 to 2000 nM,0.1 to 10 µg/mL,> 80%,200 to 2000 nM,> 80%,0.95,> 80%
"COC(=O)C12CCC(NC(=O)c3cc4nccc(-c5ccc(OC)c(OC)c5)n4n3)(CC1)CC2 [Compound 144, methyl 4-(7-(3,4-dimethoxyphenyl)pyrazolo[1,5-a]pyrimidine-2-carboxamido)bicyclo[2.2.2]octane-1-carboxylate]",> 80%,< 200 nM,< 0.1 µg/mL,> 80%,< 200 nM,> 80%,1.18,> 80%
"COc1ccc(-c2ccnc3cc(C(=O)Nc4ccc(C(=O)N[C@H](C(=O)N5CCOCC5)C(C)C)cc4)nn23)cc1OC [Compound 147, (S)-7-(3,4-dimethoxyphenyl)-N-(4-((3-methyl-1-morpholino-1-oxobutan-2-yl)carbamoyl)phenyl) pyrazolo[1,5-a]pyrimidine-2-carboxamide]",> 80%,< 200 nM,< 0.1 µg/mL,> 80%,< 200 nM,> 80%,1.03,> 80%
"COc1ccc(-c2ccnc3cc(C(=O)NC45CCC(C(=O)N6CCN(C)CC6)(CC4)CC5)nn23)cc1OC [Compound 151, 7-(3,4-dimethoxyphenyl)-N-(4-(4-methylpiperazine-1-carbonyl)bicyclo[2.2.2]octan-1-yl)pyrazolo[1,5-a]pyrimidine-2-carboxamide]",> 80%,200 to 2000 nM,> 10 µg/mL,> 80%,< 200 nM,> 80%,1.40,> 80%
"COc1ccc(-c2ccnc3cc(C(=O)Nc4ccc(N5CCOCC5)cn4)nn23)cc1OC [Compound 205, 7-(3,4-dimethoxyphenyl)-N-(5-morpholinopyridin-2-yl)pyrazolo[1,5-a]pyrimidine-2-carboxamide]",> 80%,< 200 nM,–,> 80%,< 200 nM,> 80%,1.12,> 80%
"COc1ccc(-c2ccnc3cc(C(=O)Nc4ccc(N)cc4)nn23)cc1OC [Compound 257, N-(4-aminophenyl)-7-(3,4-dimethoxyphenyl)pyrazolo [1,5-a]pyrimidine-2-carboxamide]",> 80%,200 to 2000 nM,< 0.1 µg/mL,> 80%,< 200 nM,> 80%,1.16,> 80%
